Laboratory results from patent US20150181873A1, “HERBICIDE-RESISTANT SUNFLOWER PLANTS, POLYNUCLEOTIDES ENCODING HERBICIDE=RESISTANT ACETO HYDROXY ACID SYNTHASE LARGE SUBUNIT PROTEINS, AND METHODS OF USE” (NIDERA S.A., priority 2013, published 2015).

Tests used:
Type in all cases: in vivo, Helianthus annuus
[1] = system: sunflower hybrid TH1 (A205V); assay: Greenhouse imazapir dose response, TH1; details: 14 DAT
Protocol: (§1) A greenhouse study was conducted to quantify and contrast the imazapir sensivity of the mutants A122T and A205V in different genetic backgrounds at the whole plant level in sunflower. Seeds of the different sunflower lines that were used in this study were obtained under field conditions.
(§2) Seeds were sown in Petri dishes and, after germination, plantlets were transplanted to pots of 10 cm of diameter in a potting media consisting of equal parts of vermiculite, soil and sand. Plants were grown in a greenhouse under natural light conditions supplemented with 400 W sodium halide lamps to provide a 16 hrs daylength. Day/night temperatures were 25 and 20° C., respectively. At the V2 stage 10 plants of each genotype were randomly assigned to each treatment consisting of […] imazapir doses (0, 40, 80, 160, 240, 320, 400 and 480 g ai/ha), and a zero-time biomass determination. Experiment was arranged as a randomized block design with a full factorial (sunflower line×treatment) arrangement of treatments and 10 replications.
(§3) On the day of herbicide application ten plants of each genotype were cut at the cotyledonal node and dried at 60° C. for 48 hrs zero-time for dried weight determination. […] Height was determined as the distance between the cotyledonal node and the apex of each plant. For root biomass determination, each plant was taken from the pot and the potting media was washed out from the roots. Above ground biomass data from each line were converted to biomass accumulation after application by subtracting the appropriate average zero-time biomass from each sample. Dry biomass data were converted to percentages of the untreated control plants within each line to allow direct comparisons between groups.

[2] = system: sunflower restorer line TH12 (A122T); assay: Greenhouse imazapir dose response, TH12; details: 14 DAT
Protocol: as §1, §2, §3

[3] = system: sunflower line IB920 (A205V); assay: Greenhouse imazapir dose response, IB920; details: 14 DAT
Protocol: as §1, §2, §3

[4] = system: Clearfield sunflower variety C; assay: Greenhouse spray injury rating, Clearfield variety C; details: imazapyr 240 gm ai/ha, scale 0-9
Text: Sunflower lines S4897, Clearfield® sunflower varieties A, B, C and a conventional non-Clearfield variety were sprayed with three rates of imazamox (Raptor™), 100, 200 and 300 gm ai/ha plus 0.5% Sun It II and two rates of imazapyr (Arsenal™) 160 and 360 gm ai/ha plus 0.5% Sun It II when the plants were at the two to three leaf stage. Ratings were taken at 14 days after application (DAT) for injury. Injury was rated on a scale from 0 to 9 where 0=no injury to 9=dead plant. Twelve plants were sprayed per herbicide/rate treatment. Statistical analysis was conducted with STATGRAPHICS Plus 5.0 by using ANOVA and LSD procedures.
After plants were sprayed, it was realized that a height difference between S4897 and other sunflower varieties would have impacted the actual herbicide dose that was delivered. The spray boom height had been calibrated against S4897 and since the other varieties were taller and closer to the boom they would have received a greater dose of herbicide. Rates were recalibrated for the other varieties to determine the approximate dose they would have received. Assessments were made as presented in Table 2 since it was not possible to make a direct rate comparison due to the effect of the height. For example injury scores were compare for S4897 treated imazamox rate 100 gm ai/ha to the other varieties treated at 75 gm ai/ha. The treatment dose of 300 gm ai/ha for line S4897 was equivalent to the treatment of 200 gm ai/ha for the other varieties, which […].

CC(C)C1(C)N=C(c2ncccc2C(=O)O)NC1=O (stereo not drawn) [Imazapyr, imazapyr]
Phytotoxicity Index ([1]; 0.5x (40 g ai/ha)): 0
biomass accumulation, % of untreated ([1]; 0.5x (40 g ai/ha)): 95.0%
plant height, % of untreated ([1]; 0.5x (40 g ai/ha)): 99.5%
root dry weight, % of untreated ([1]; 0.5x (40 g ai/ha)): 79.4%
Phytotoxicity Index ([1]; 1x (80 g ai/ha)): 0
biomass accumulation, % of untreated ([1]; 1x (80 g ai/ha)): 89.6%
plant height, % of untreated ([1]; 1x (80 g ai/ha)): 99.5%
root dry weight, % of untreated ([1]; 1x (80 g ai/ha)): 70.7%
Phytotoxicity Index ([1]; 2x (160 g ai/ha)): 1.8
biomass accumulation, % of untreated ([1]; 2x (160 g ai/ha)): 75.5%
plant height, % of untreated ([1]; 2x (160 g ai/ha)): 78.6%
root dry weight, % of untreated ([1]; 2x (160 g ai/ha)): 69.6%
Phytotoxicity Index ([1]; 3x (240 g ai/ha)): 6.4
biomass accumulation, % of untreated ([1]; 3x (240 g ai/ha)): 60.4%
plant height, % of untreated ([1]; 3x (240 g ai/ha)): 48.4%
root dry weight, % of untreated ([1]; 3x (240 g ai/ha)): 42.3%
Phytotoxicity Index ([1]; 4x (320 g ai/ha)): 8.0
biomass accumulation, % of untreated ([1]; 4x (320 g ai/ha)): 46.5%
plant height, % of untreated ([1]; 4x (320 g ai/ha)): 28.9%
root dry weight, % of untreated ([1]; 4x (320 g ai/ha)): 38.6%
Phytotoxicity Index ([1]; 5x (400 g ai/ha)): 8.9
biomass accumulation, % of untreated ([1]; 5x (400 g ai/ha)): 38.9%
plant height, % of untreated ([1]; 5x (400 g ai/ha)): 25.3%
root dry weight, % of untreated ([1]; 5x (400 g ai/ha)): 34.7%
Phytotoxicity Index ([1]; 6x (480 g ai/ha)): 9.0
biomass accumulation, % of untreated ([1]; 6x (480 g ai/ha)): 33.9%
plant height, % of untreated ([1]; 6x (480 g ai/ha)): 27.1%
root dry weight, % of untreated ([1]; 6x (480 g ai/ha)): 23.1%
Phytotoxicity Index ([2]; 0.5x (40 g ai/ha)): 0.0
biomass accumulation, % of untreated ([2]; 0.5x (40 g ai/ha)): 100.0%
plant height, % of untreated ([2]; 0.5x (40 g ai/ha)): 100.0%
root dry weight, % of untreated ([2]; 0.5x (40 g ai/ha)): 99.4%
Phytotoxicity Index ([2]; 1x (80 g ai/ha)): 0.0
biomass accumulation, % of untreated ([2]; 1x (80 g ai/ha)): 99.1%
plant height, % of untreated ([2]; 1x (80 g ai/ha)): 100.0%
root dry weight, % of untreated ([2]; 1x (80 g ai/ha)): 100%
Phytotoxicity Index ([2]; 2x (160 g ai/ha)): 0.0
biomass accumulation, % of untreated ([2]; 2x (160 g ai/ha)): 97.0%
plant height, % of untreated ([2]; 2x (160 g ai/ha)): 101.8%
root dry weight, % of untreated ([2]; 2x (160 g ai/ha)): 100%
Phytotoxicity Index ([2]; 3x (240 g ai/ha)): 0.0
biomass accumulation, % of untreated ([2]; 3x (240 g ai/ha)): 96.1%
plant height, % of untreated ([2]; 3x (240 g ai/ha)): 97.0%
root dry weight, % of untreated ([2]; 3x (240 g ai/ha)): 100.0%
Phytotoxicity Index ([2]; 4x (320 g ai/ha)): 0.0
biomass accumulation, % of untreated ([2]; 4x (320 g ai/ha)): 84.3%
plant height, % of untreated ([2]; 4x (320 g ai/ha)): 92.1%
root dry weight, % of untreated ([2]; 4x (320 g ai/ha)): 74.5%
Phytotoxicity Index ([2]; 5x (400 g ai/ha)): 0.0
biomass accumulation, % of untreated ([2]; 5x (400 g ai/ha)): 77.5%
plant height, % of untreated ([2]; 5x (400 g ai/ha)): 84.8%
root dry weight, % of untreated ([2]; 5x (400 g ai/ha)): 65.0%
Phytotoxicity Index ([2]; 6x (480 g ai/ha)): 0.5
biomass accumulation, % of untreated ([2]; 6x (480 g ai/ha)): 70.7%
plant height, % of untreated ([2]; 6x (480 g ai/ha)): 79.8%
root dry weight, % of untreated ([2]; 6x (480 g ai/ha)): 57.8%
biomass accumulation, % of untreated ([3]; 0.5x (40 g ai/ha)): 93.9%
plant height, % of untreated ([3]; 0.5x (40 g ai/ha)): 96.2%
root dry weight, % of untreated ([3]; 0.5x (40 g ai/ha)): 94.0%
biomass accumulation, % of untreated ([3]; 1x (80 g ai/ha)): 87.9%
plant height, % of untreated ([3]; 1x (80 g ai/ha)): 80.0%
root dry weight, % of untreated ([3]; 1x (80 g ai/ha)): 89.6%
biomass accumulation, % of untreated ([3]; 2x (160 g ai/ha)): 58.8%
plant height, % of untreated ([3]; 2x (160 g ai/ha)): 61.5%
root dry weight, % of untreated ([3]; 2x (160 g ai/ha)): 50.7%
biomass accumulation, % of untreated ([3]; 3x (240 g ai/ha)): 46.4%
plant height, % of untreated ([3]; 3x (240 g ai/ha)): 40.9%
root dry weight, % of untreated ([3]; 3x (240 g ai/ha)): 37.3%
biomass accumulation, % of untreated ([3]; 4x (320 g ai/ha)): 35.5%
plant height, % of untreated ([3]; 4x (320 g ai/ha)): 27.9%
root dry weight, % of untreated ([3]; 4x (320 g ai/ha)): 32.8%
biomass accumulation, % of untreated ([3]; 5x (400 g ai/ha)): 33.9%
plant height, % of untreated ([3]; 5x (400 g ai/ha)): 30.0%
root dry weight, % of untreated ([3]; 5x (400 g ai/ha)): 25.4%
biomass accumulation, % of untreated ([3]; 6x (480 g ai/ha)): 29.4%
plant height, % of untreated ([3]; 6x (480 g ai/ha)): 27.1%
root dry weight, % of untreated ([3]; 6x (480 g ai/ha)): 19.4%
Injury at 14 DAT [4]: 4.9 c
